{"source": "patent US4515891A", "about": "“Process for the production of disaccharide-tripeptide and disaccharide-tetrapeptide” (priority 1982, dated 1985)", "key": {"[1]": {"system": "delayed-type hypersensitivity to ovalbumin", "experiment": "Immunostimulant (immunoadjuvant) activity: corneal response", "format": "in vivo, Hartley strain guinea pigs", "conditions": "grade 0 to 3.0; guinea pigs sensitized with 1 mg ovalbumin + 100 μg test compound in water-in-oil emulsion; intracorneal ovalbumin 2 weeks after sensitization, read after 48 hours", "experimental": "(§1) The animals sensitized were prepared as follows. Groups of 5 female Hartley strain guinea pigs, weighing 200 to 300 g, were injected in the left hind food-pad with 0.2 ml of a water-in-oil emulsion containing 1 mg of crystalline ovalbumin as antigen and 100 μg of test compound. The water-in-oil emulsion consisted of Drakeol 6VR (Pennsylvania Refining Co., U.S.A.), Arlacel A (Atlas Chemical Industries Inc., U.S.A.) and 1/75M phosphate-buffered physiological saline (pH 7.0) in a ratio of 4:1:5 by volume. Control guinea pigs were injected with a water-in-oil emulsion of similar composition containing the antigen but not test compound (Freund's incomplete adjuvant).\nTo test for the induction of delayed-type hypersensitivity to ovalbumin, that is, the enhancement of cell-mediated immunity, 2 weeks after the sensitization the guinea pigs were given an intracorneal injection of ovalbumin solution (20 mg/ml saline) to make a transient disc of opacity of approximately 5 mm in diameter. The eyes were examined after 48 hours and the extent and degree of corneal opacity were recorded. The reactions were graded from 3.0, for a strong reaction where the whole cornea was thickened, opaque and grayish-white, to 1.0, where slight opacity was observed. When no visible difference from the uninjected eye was detected, the reaction was graded as 0."}, "[2]": {"system": "delayed-type hypersensitivity to ovalbumin", "experiment": "Immunostimulant (immunoadjuvant) activity: skin reaction", "format": "in vivo, Hartley strain guinea pigs", "conditions": "extent of induration; guinea pigs sensitized with 1 mg ovalbumin + 100 μg test compound; intradermal ovalbumin 3 weeks after sensitization, measured after 48 hours", "experimental": "as §1\nTo test for the induction of delayed-type hypersensitivity to ovalbumin, 3 weeks after the sensitization the guinea pigs were given an intradermal injection of ovalbumin solution (0.1 mg/0.1 ml saline) at one hind foot-pad shaved with a clipper. The size of induration was measured after 48 hours. The extent of induration was calculated by the formula as described in Biken Journal, 20, pages 95-103 (1977)."}, "[3]": {"system": "antiovalbumin antibody", "experiment": "Immunostimulant (immunoadjuvant) activity: production of humoral antibody", "format": "in vivo, Hartley strain guinea pigs", "conditions": "guinea pigs bled 4 weeks after sensitization with 1 mg ovalbumin + 100 μg test compound", "experimental": "as §1\nTo test for the enhancement of production of humoral antibody, 4 weeks after the sensitization the guinea pigs were bled by cardiac puncture. The levels of antiovalbumin antibody nitrogen were measured quantitatively using a spectrophotometric technique."}, "[4]": {"system": "Pseudomonas aeruginosa No. 12", "experiment": "Enhancement of nonspecific resistance to bacterial infections", "format": "in vivo, Std-ddY strain mice", "conditions": "survivors 7 days after infection, mice", "experimental": "Male Std-ddY strain mice weighing about 23 g were used. Test compounds were dissolved in physiological saline and intravenously administered to the animals 72, 48 and 24 hours before the intraperitoneal infection with Pseudomonas aeruginosa No. 12 (inoculum size: 2×10^6 cells/mouse). The number of survivors were recorded 7 days after the infection."}, "[5]": {"experiment": "Solubility (physicochemical properties)"}, "[6]": {"conditions": "dose 0.0125 mg/kg i.v. 72, 48 and 24 hours before i.p. infection"}, "[7]": {"conditions": "dose 0.05 mg/kg i.v. 72, 48 and 24 hours before i.p. infection"}, "[8]": {"conditions": "dose 0.2 mg/kg i.v. 72, 48 and 24 hours before i.p. infection"}, "[9]": {"conditions": "dose 0.8 mg/kg i.v. 72, 48 and 24 hours before i.p. infection"}, "[10]": {"conditions": "dose 3.1 mg/kg i.v. 72, 48 and 24 hours before i.p. infection"}, "[11]": {"conditions": "dose 12.5 mg/kg i.v. 72, 48 and 24 hours before i.p. infection"}}, "data": [{"molecule": "CC(=O)N[C@H]1[C@H](O[C@H]2[C@H](O[C@H](C)C(=O)N[C@@H](C)C(=O)N[C@H](CCC(=O)N[C@@H](CCC[C@@H](N)C(N)=O)C(=O)O)C(N)=O)[C@@H](NC(C)=O)C(O)O[C@@H]2CO)O[C@H](CO)[C@@H](O)[C@@H]1O", "note": "(stereo partly drawn) [GMP3 -A, β-N-acetylglucosaminyl-(1→4)-N-acetylmuramyl-L-alanyl-D-isoglu taminyl-(L)-meso-2,6-diaminopimelic acid-(D)-amide]", "values": [{"measurement": "Corneal response", "setting": "[1]", "result": 2.2}, {"measurement": "Skin reaction", "setting": "[2]", "result": 2.5}, {"measurement": "Antibody nitrogen", "setting": "[3]", "result": "350 ± 50", "unit": "µg/mL"}, {"measurement": "Number of survivors/total number of test animals", "setting": "[4]; dose 0.0031 mg/kg i.v. 72, 48 and 24 hours before i.p. infection", "result": "7/16"}, {"measurement": "Number of survivors/total number of test animals", "setting": "[4]; [6]", "result": "9/16"}, {"measurement": "Number of survivors/total number of test animals", "setting": "[4]; [7]", "result": "9/16"}, {"measurement": "Number of survivors/total number of test animals", "setting": "[4]; [8]", "result": "8/16"}, {"measurement": "Number of survivors/total number of test animals", "setting": "[4]; [9]", "result": "10/16"}, {"measurement": "Number of survivors/total number of test animals", "setting": "[4]; [10]", "result": "14/16"}, {"measurement": "Number of survivors/total number of test animals", "setting": "[4]; [11]", "result": "16/16"}, {"measurement": "Solubility", "setting": "[5]; in diethyl ether", "result": "insoluble"}, {"measurement": "Solubility", "setting": "[5]; in water, 50% C1-3 alcohol", "result": "Soluble"}]}, {"molecule": "CC(=O)N[C@H]1[C@H](O[C@H]2[C@H](O[C@H](C)C(=O)N[C@@H](C)C(=O)N[C@H](CCC(=O)N[C@@H](CCC[C@@H](N)C(N)=O)C(=O)N[C@H](C)C(=O)O)C(N)=O)[C@@H](NC(C)=O)C(O)O[C@@H]2CO)O[C@H](CO)[C@@H](O)[C@@H]1O", "note": "(stereo partly drawn) [GMP4 -A, β-N-acetylglucosaminyl-(1→4)-N-acetylmuramyl-L-alanyl-D-isoglu taminyl-(L)-meso-2,6-diaminopimelic acid-(D)-amide-(L)-D-alanine]", "values": [{"measurement": "Corneal response", "setting": "[1]", "result": 2.0}, {"measurement": "Skin reaction", "setting": "[2]", "result": 3.7}, {"measurement": "Antibody nitrogen", "setting": "[3]", "result": "399 ± 90", "unit": "µg/mL"}, {"measurement": "Number of survivors/total number of test animals", "setting": "[4]; [6]", "result": "6/16"}, {"measurement": "Number of survivors/total number of test animals", "setting": "[4]; [7]", "result": "6/16"}, {"measurement": "Number of survivors/total number of test animals", "setting": "[4]; [8]", "result": "4/16"}, {"measurement": "Number of survivors/total number of test animals", "setting": "[4]; [9]", "result": "7/16"}, {"measurement": "Number of survivors/total number of test animals", "setting": "[4]; [10]", "result": "7/16"}, {"measurement": "Number of survivors/total number of test animals", "setting": "[4]; [11]", "result": "16/16"}, {"measurement": "Solubility", "setting": "[5]; in diethyl ether", "result": "insoluble"}, {"measurement": "Solubility", "setting": "[5]; in water, 50% C1-3 alcohol", "result": "Soluble"}]}, {"molecule": "β-N-acetylglucosaminyl-(1→4)-N,6-O-diacetylmuramyl-L-alanyl-D- isoglutaminyl-(L)-meso-2,6-diaminopimelic acid-(D)-amide-(L)-D-alanine [GMP4 -B]", "values": [{"measurement": "Corneal response", "setting": "[1]", "result": 2.2}, {"measurement": "Skin reaction", "setting": "[2]", "result": 3.7}, {"measurement": "Antibody nitrogen", "setting": "[3]", "result": "216 ± 57", "unit": "µg/mL"}, {"measurement": "Number of survivors/total number of test animals", "setting": "[4]; [6]", "result": "4/16"}, {"measurement": "Number of survivors/total number of test animals", "setting": "[4]; [7]", "result": "4/16"}, {"measurement": "Number of survivors/total number of test animals", "setting": "[4]; [8]", "result": "6/16"}, {"measurement": "Number of survivors/total number of test animals", "setting": "[4]; [9]", "result": "9/16"}, {"measurement": "Number of survivors/total number of test animals", "setting": "[4]; [10]", "result": "10/16"}, {"measurement": "Number of survivors/total number of test animals", "setting": "[4]; [11]", "result": "16/16"}]}, {"molecule": "β-N-acetylglucosaminyl-(1→4)-N,6O-diacetylmuramyl-L-alanyl-D-i soglutaminyl-(L)-meso-2,6-diaminopimelic acid-(D)-amide [GMP3 -B]", "values": [{"measurement": "Corneal response", "setting": "[1]", "result": 2.4}, {"measurement": "Skin reaction", "setting": "[2]", "result": 3.5}, {"measurement": "Antibody nitrogen", "setting": "[3]", "result": "250 ± 40", "unit": "µg/mL"}, {"measurement": "Number of survivors/total number of test animals", "setting": "[4]; [6]", "result": "5/16"}, {"measurement": "Number of survivors/total number of test animals", "setting": "[4]; [7]", "result": "7/16"}, {"measurement": "Number of survivors/total number of test animals", "setting": "[4]; [8]", "result": "9/16"}, {"measurement": "Number of survivors/total number of test animals", "setting": "[4]; [9]", "result": "10/16"}, {"measurement": "Number of survivors/total number of test animals", "setting": "[4]; [10]", "result": "12/16"}, {"measurement": "Number of survivors/total number of test animals", "setting": "[4]; [11]", "result": "16/16"}, {"measurement": "Solubility", "setting": "[5]; in diethyl ether", "result": "insoluble"}, {"measurement": "Solubility", "setting": "[5]; in water, 50% C1-3 alcohol", "result": "Soluble"}]}]}
